# Measurements reported in PMC6928636, “Broad-Spectrum Amino Acid Transporters ClAAP3 and ClAAP6 Expressed in Watermelon Fruits” (International Journal of Molecular Sciences, 2019).
# Where two headings read alike, the source gives them in different places.
# Key:
# Settings in all cases: labelled compound; empty-vector values used to normalize
# [1] = test system: T1, ClAAP6; assay: [3H]Arg uptake into yeast […]Δ[…]α cells; assay type: cell-based, Citrullus lanatus
# T1 construct: untagged; expressed in S. cerevisiae 22Δ10α lacking endogenous amino acid transporters
# [2] = test system: T2, ClAAP3; assay: [3H]Arg uptake into yeast […]Δ[…]α cells; assay type: cell-based, Citrullus lanatus
# T2 construct: untagged; expressed in S. cerevisiae 22Δ10α lacking endogenous amino acid transporters
# [3] = test system: ClAAP6
# [4] = test system: ClAAP3
Km [3] [µM],Km [4] [µM],SMILES,Km [1] [µM],Km [2] [µM]
,,N=C(N)NCCC[C@H](N)C(=O)O [Arg],579 ± 24.1,54.1 ± 7.5
74 ± 9.8,398 ± 48.6,O=C(O)[C@@H]1CCCN1 [Pro],,
